Target: Thromboxane A2 receptor (Homo sapiens, UniProt P21731)
Sequence (P21731 as listed by the source): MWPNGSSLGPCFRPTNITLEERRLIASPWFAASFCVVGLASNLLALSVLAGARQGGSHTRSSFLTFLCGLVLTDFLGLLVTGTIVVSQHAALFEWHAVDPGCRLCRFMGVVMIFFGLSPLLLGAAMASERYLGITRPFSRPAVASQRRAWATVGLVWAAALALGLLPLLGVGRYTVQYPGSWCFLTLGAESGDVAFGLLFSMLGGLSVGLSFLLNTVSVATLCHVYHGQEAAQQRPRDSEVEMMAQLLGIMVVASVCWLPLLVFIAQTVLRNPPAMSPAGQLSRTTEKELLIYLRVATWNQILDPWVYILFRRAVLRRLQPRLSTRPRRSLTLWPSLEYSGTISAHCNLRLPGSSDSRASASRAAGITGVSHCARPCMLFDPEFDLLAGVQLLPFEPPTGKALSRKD

Ki | Compound
0.8 nM | Cc1ccc(Nc2ccc([N+](=O)[O-])cc2S(=O)(=O)NC(=O)NC(C)(C)C)cc1 [BM 573]
3.1 nM | CCCCCNC(=O)NS(=O)(=O)c1cc([N+](=O)[O-])ccc1Nc1ccc(C)cc1

— BindingDB's records for doi:10.1124/jpet.104.079301 (University of Li&Eagrove;Ge, 2005)
